This note sets out measurements from ChEMBL document CHEMBL1201862, “PubChem BioAssay data set” (2004).

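48-hour exposure; five concentrations; linearly interpolated endpoints. The concentration for 50% growth inhibition is given as GI50.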 Calls of active or inactive are those of the source. Rule as the data show it: active = GI50 up to about 1.1 µM and inactive = higher. A value given as a limit tells only on which side of the number the result lay.

Among the test systems are CAKI-1; EKVX; HCC 2998; HL-60; HOP-62; HT-29; IGROV-1; K562; LOX IMVI; M14; MDA-MB-231; NCI-H460; SF-295; SK-MEL-2; SN12C; SW-620; U-251; UACC-257; SNB-75; SR.
What all share (assay): NCI tumour cell line growth inhibition, 48 h

On to `NN(CC(=O)O)CC(=O)O`, for which the GI50 in the assay on CAKI-1, in the assay with EKVX, in the assay with HCC 2998, in the assay with HL-60, with HOP-62 and in the assay on HT-29 was > 100 µM (inactive) throughout. Further, the GI50 with IGROV-1, with K562, in the assay on LOX IMVI, with M14, in the assay with MDA-MB-231 and in the assay on NCI-H460 was > 100 µM (inactive) in each case. Further, the GI50 in the assay with SF-295, with SK-MEL-2, in the assay with SN12C, with SW-620, in the assay with U-251 and in the assay with UACC-257 was > 100 µM (inactive) each time.

For `COc1ccc(OC)c2c(C)ccnc12`, the GI50 in the assay with CAKI-1 is 28.9 µM (inactive); in the assay with EKVX it was 14.3 µM (inactive); in the assay on HCC 2998, > 95.5 µM (inactive); in the assay on HOP-62, 9.75 µM (inactive); in the assay with HT-29, 17.1 µM (inactive); in the assay on IGROV-1, 10.7 µM (inactive). Further, the GI50 in the assay on K562 was > 37.7 µM (inactive); with LOX IMVI it was 5.28 µM (inactive); with M14, 10.6 µM (inactive); in the assay on MDA-MB-231 it was 34 µM (inactive); in the assay on NCI-H460, 21.7 µM (inactive); in the assay on SF-295, 16.5 µM (inactive). In addition, the GI50 is 22.8 µM (inactive) with SK-MEL-2; 22.1 µM (inactive) in the assay with SN12C; 33.1 µM (inactive) in the assay on SNB-75; 10.5 µM (inactive) with SW-620; 16.4 µM (inactive) in the assay on U-251; 33.7 µM (inactive) with UACC-257.

Consider `COc1cccc(N(CN2CC=CC2=O)C(C)=O)c1`, for which the GI50 with CAKI-1, in the assay on EKVX, in the assay on HCC 2998, in the assay on HL-60, in the assay with HOP-62 and with HT-29 was > 100 µM (inactive) each time. In addition, the GI50 with IGROV-1, with K562, in the assay with LOX IMVI, in the assay on M14, with MDA-MB-231 and in the assay with NCI-H460 was > 100 µM (inactive) throughout. The GI50 in the assay with SF-295, with SK-MEL-2, with SN12C, with SNB-75, in the assay on SW-620 and in the assay with U-251 was > 100 µM (inactive) throughout. The GI50 in the assay on UACC-257 was > 100 µM (inactive).

Turning to `CNC(=O)CCCN(C)C(=O)CCCCC(=O)N(C)C`, the GI50 was > 37.6 µM (inactive) in the assay on CAKI-1; > 57.9 µM (inactive) in the assay with EKVX; > 51.1 µM (inactive) in the assay on HCC 2998; 26.7 µM (inactive) with HL-60; > 100 µM (inactive) in the assay with HOP-62; > 57.1 µM (inactive) in the assay with HT-29. For the same compound, the GI50 was > 58.7 µM (inactive) with IGROV-1; > 55.2 µM (inactive) with K562; > 57.5 µM (inactive) in the assay with LOX IMVI; > 100 µM (inactive) in the assay with M14; > 37.8 µM (inactive) with MDA-MB-231; > 56 µM (inactive) in the assay with NCI-H460. The GI50 was > 59.2 µM (inactive) with SF-295; > 50.9 µM (inactive) with SK-MEL-2; > 61.1 µM (inactive) in the assay on SN12C; > 53.8 µM (inactive) in the assay with SNB-75; > 59.6 µM (inactive) with SW-620; > 58.2 µM (inactive) with U-251. Further, the GI50 with UACC-257 is > 59.3 µM (inactive).

As for `CC(=O)C(=N\Nc1ccc(Cl)cc1)/C(C)=N/c1ccc(C)cc1`, the GI50 is 49.3 µM (inactive) in the assay with CAKI-1; 21.3 µM (inactive) in the assay on EKVX; > 10 µM (inactive) with HOP-62; 22.5 µM (inactive) in the assay with HT-29; 32.7 µM (inactive) in the assay on IGROV-1; 33 µM (inactive) in the assay on K562. The GI50 in the assay with LOX IMVI is 45 µM (inactive); with M14, 22.1 µM (inactive); in the assay with MDA-MB-231, 37.5 µM (inactive); in the assay on SF-295, 32.4 µM (inactive); in the assay on SK-MEL-2, 18.4 µM (inactive); with SN12C, 45.7 µM (inactive). Also, the GI50 is 44 µM (inactive) in the assay on SNB-75; > 100 µM (inactive) in the assay on SR; 41.6 µM (inactive) in the assay with SW-620; 31.6 µM (inactive) in the assay on U-251; 53.2 µM (inactive) in the assay with UACC-257.

Consider `CCOC(=O)c1nnsc1NN`, for which the GI50 with CAKI-1 is 76.2 µM (inactive); in the assay on EKVX, > 100 µM (inactive); in the assay on HCC 2998 it was > 100 µM (inactive); with HL-60, 10.5 µM (inactive); with HOP-62, > 100 µM (inactive); with HT-29, 55.5 µM (inactive). The GI50 with IGROV-1 was > 100 µM (inactive); in the assay with LOX IMVI, 30.1 µM (inactive); with M14 it was 90.6 µM (inactive); in the assay with MDA-MB-231, 53.8 µM (inactive); with NCI-H460 it was 55.8 µM (inactive); with SF-295 it was > 100 µM (inactive). Also, the GI50 in the assay with SK-MEL-2, with SN12C, in the assay with SNB-75, in the assay on SW-620, with U-251 and in the assay with UACC-257 was > 100 µM (inactive) throughout.

`COc1ccccc1/C=C\c1cnnc2ccccc12`: the GI50 with CAKI-1 is > 10 µM (inactive); with EKVX, 8.79 µM (inactive); in the assay with HCC 2998, > 10 µM (inactive); in the assay with HL-60 it was > 10 µM (inactive); with HOP-62, > 10 µM (inactive); in the assay on HT-29 it was 3.77 µM (inactive). In addition, the GI50 is 8.63 µM (inactive) in the assay with IGROV-1; 4.7 µM (inactive) in the assay with K562; 3.66 µM (inactive) with LOX IMVI; > 10 µM (inactive) in the assay on M14; > 10 µM (inactive) with MDA-MB-231; > 10 µM (inactive) in the assay with NCI-H460. For the same compound, the GI50 is > 10 µM (inactive) with SF-295; > 10 µM (inactive) in the assay with SK-MEL-2; > 10 µM (inactive) with SN12C; 9.02 µM (inactive) in the assay on SNB-75; > 10 µM (inactive) in the assay on SW-620; > 10 µM (inactive) with U-251. In the assay with UACC-257, the GI50 was > 10 µM (inactive).

Consider `COc1ccc2[nH]c3c([N+](=O)[O-])ccc(Cl)c3c(=O)c2c1`, for which the GI50 in the assay on CAKI-1 was 23.2 µM (inactive); in the assay with EKVX, 44.1 µM (inactive); in the assay with HCC 2998 it was 28.9 µM (inactive); with HL-60 it was 3.02 µM (inactive); with HOP-62 it was 26.7 µM (inactive); in the assay on HT-29 it was 16.3 µM (inactive). The GI50 in the assay on IGROV-1 was 13.1 µM (inactive); in the assay on K562, 2.99 µM (inactive); with LOX IMVI it was 7.71 µM (inactive); with M14, 15.8 µM (inactive); with MDA-MB-231, 18 µM (inactive); in the assay with NCI-H460, 29 µM (inactive). The GI50 is 38 µM (inactive) in the assay on SF-295; 22.1 µM (inactive) with SK-MEL-2; 22.9 µM (inactive) in the assay with SN12C; 7.67 µM (inactive) in the assay on SW-620; 25.4 µM (inactive) with U-251; 11.5 µM (inactive) in the assay with UACC-257.

On to `COC(=O)[C@H](Cc1ccccc1)NC(=O)OCC1OC(n2cc(C)c(=O)[nH]c2=O)CC1N=[N+]=[N-]` (stereo partly specified), for which the GI50 in the assay with CAKI-1, in the assay on EKVX, in the assay with HCC 2998, with HL-60, in the assay with HOP-62 and in the assay on HT-29 was > 100 µM (inactive) throughout. Further, the GI50 in the assay on IGROV-1, with K562, with LOX IMVI, in the assay with M14, in the assay on MDA-MB-231 and in the assay with NCI-H460 was > 100 µM (inactive) throughout. The GI50 was > 100 µM (inactive) in the assay on SF-295; > 100 µM (inactive) in the assay with SK-MEL-2; > 100 µM (inactive) with SN12C; 78.3 µM (inactive) with SNB-75; > 100 µM (inactive) in the assay with SW-620; > 100 µM (inactive) in the assay on U-251. For the same compound, the GI50 with UACC-257 is > 100 µM (inactive).

For `O=C1CNCCCN2CCN(CCCNCC(=O)Nc3ccc(cc3)S(=O)(=O)c3ccc(cc3)NC(=O)CNCCCN3CCN(CCCNCC(=O)Nc4ccc(cc4)S(=O)(=O)c4ccc(cc4)N1)CC3)CC2`, the GI50 was 30.1 µM (inactive) in the assay with CAKI-1; 36.6 µM (inactive) in the assay with EKVX; 21.2 µM (inactive) in the assay on HCC 2998; 0.433 µM (active) in the assay on HL-60; 25.1 µM (inactive) in the assay on HOP-62; 27.2 µM (inactive) in the assay on HT-29. In addition, the GI50 in the assay on IGROV-1 was 21.2 µM (inactive); with K562, 22.3 µM (inactive); in the assay with LOX IMVI, 21 µM (inactive); in the assay with M14, 46 µM (inactive); in the assay with MDA-MB-231, 22.5 µM (inactive); with NCI-H460, 10.4 µM (inactive). For the same compound, the GI50 is 20.5 µM (inactive) with SF-295; 35.1 µM (inactive) with SK-MEL-2; > 45.3 µM (inactive) in the assay on SN12C; 37.2 µM (inactive) in the assay with SNB-75; 31.4 µM (inactive) in the assay on SW-620; 24.5 µM (inactive) with U-251. Further, in the assay with UACC-257, the GI50 is 17 µM (inactive).

Regarding `O=C(OCc1ccccc1[N+](=O)[O-])N1c2ccccc2[C@@]23O[C@]24CCC[C@H]3C#C/C=C\C#C[C@H]14`, the GI50 in the assay with CAKI-1 was 7.36 µM (inactive); in the assay with EKVX, > 100 µM (inactive); in the assay on HCC 2998 it was 41.3 µM (inactive); in the assay with HL-60, 2.5 µM (inactive); in the assay on HT-29, 38.1 µM (inactive); in the assay with IGROV-1, > 100 µM (inactive). Besides, the GI50 with K562 is 5.83 µM (inactive); in the assay with LOX IMVI it was 6.73 µM (inactive); in the assay on M14, > 100 µM (inactive); in the assay with MDA-MB-231, > 100 µM (inactive); in the assay with NCI-H460, 0.362 µM (active); with SF-295, 7.01 µM (inactive). Moreover, the GI50 was > 100 µM (inactive) in the assay on SK-MEL-2; 13.7 µM (inactive) with SN12C; 9.16 µM (inactive) in the assay with SW-620; 11 µM (inactive) with U-251; > 100 µM (inactive) with UACC-257.
